# Earlier results, collected in US20080021079A1, “Compounds, Compositions, and Methods” (priority 2003, published 2008).
# Tested on: A549 cells
row,GI50 [nM],SMILES
1,1000,O=c1[nH]cc(F)c(=O)[nH]1 [5-fluorouracil]
2,63,COc1cccc2c1C(=O)c1c(O)c3c(c(O)c1C2=O)C[C@@](O)(C(=O)CO)C[C@@H]3O[C@H]1C[C@H](N)[C@H](O)[C@H](C)O1 [doxorubicin]
3,500000,NC(=O)NO [hydroxyurea]
4,4,CC(=O)O[C@H]1C(=O)[C@@]2(C)[C@H]([C@H](OC(=O)c3ccccc3)[C@]3(O)C[C@H](OC(=O)[C@H](O)[C@@H](NC(=O)c4ccccc4)c4ccccc4)C(C)=C1C3(C)C)[C@]1(OC(C)=O)CO[C@@H]1C[C@@H]2O [paclitaxel]
